Each structure is given as a SMILES string.

This is an account of results in ChEMBL document CHEMBL5532711, “Peniapyrones A-I, Cytotoxic Tricyclic-Fused α-Pyrone Derivatives from an Endophytic Penicillium brefeldianum F4a” (J Nat Prod, 2024).

Common to all, as to format: functional, cell-based
For test [1], the system named is ASPC1. In words: Cytotoxicity against human ASPC1 cells harboring KRAS G12D mutant assessed as inhibition of cell growth.
The test system of test [2] is SNU-449. The test is described as follows: Cytotoxicity against human SNU-449 cells assessed as inhibition of cell growth.
Test [3] concerns MCF7. The test is described as follows: Cytotoxicity against human MCF7 cells assessed as inhibition of cell growth.

For `Cc1cc2c(c(=O)o1)[C@@]1(C)C=CC(=O)[C@H]1[C@@H](OC[C@H]1C(=O)CC[C@@H]1C)O2`, the IC50 in test [1] was 9.4 µM; in test [2], 1.2 µM; in test [3] it was 0.8 µM.

`Cc1cc2c(c(=O)o1)[C@]1(C)C=CC(=O)[C@@H]1[C@H](OC[C@H]1C(=O)CC[C@@H]1C)O2`: the IC50 in test [1], in test [2] and in test [3] was more than 10 µM each time.

Turning to `CO[C@@H]1Oc2cc(C)oc(=O)c2[C@]2(C)C=CC(=O)[C@H]12`, the IC50 in test [1], in test [2] and in test [3] was more than 10 µM in each case.

Regarding `C=C1[C@@H](O)C[C@H]2Oc3cc(C)oc(=O)c3[C@@]12C`, the IC50 in test [1] was 1.7 µM; in test [2], 2.7 µM; in test [3], 0.2 µM.

With `CCO[C@@H]1Oc2cc(C)oc(=O)c2[C@]2(C)C=CC(=O)[C@H]12`, the IC50 in test [1] amounted to 2.2 µM; in test [2], 1.4 µM; in test [3], 0.7 µM.

Regarding `Cc1cc2c(c(=O)o1)[C@@]1(C)C[C@H](O)C[C@H]1O2`, the results for the IC50 in test [1], in test [2] and in test [3] were 1.5 µM, more than 10 µM and 4.6 µM, respectively.

In the case of `Cc1cc2c(c(=O)o1)[C@]1(C)C=CC(=O)[C@@H]1[C@H](O)O2`, the IC50 worked out at 1.7 µM in test [1], 5.9 µM in test [2] and 5.3 µM in test [3].

`Cc1cc2c(c(=O)o1)[C@@]1(C)[C@H](CO)[C@@H](O)C[C@H]1O2`: the IC50 in test [1] is more than 10 µM; in test [2] it was 8.8 µM; in test [3] it was 5.5 µM.

For the compound `Cc1cc2c(c(=O)o1)[C@@]1(C)CC(=O)C[C@H]1O2` (racemic), the IC50 in test [1] is 2.9 µM; in test [2] it was more than 10 µM; in test [3] it was 9.9 µM.

For the compound `Cc1nc(Nc2ncc(C(=O)Nc3c(C)cccc3Cl)s2)cc(N2CCN(CCO)CC2)n1` [DASATINIB ANHYDROUS], the IC50 in test [1] was 3.3 µM; in test [3] it was more than 10 µM.

Turning to `Nc1ccn([C@@H]2O[C@H](CO)[C@@H](O)C2(F)F)c(=O)n1` [GEMCITABINE], the IC50 is 0.5 µM in test [1] and more than 10 µM in test [2].
